Assay results from patent US9783833B2, “Biocatalytic methods to convert cyclohexane oxidation process waste streams to useful products” (INVISTA NORTH AMERICA S.A. R.L., priority 2011, dated 2017).

Columns and labels:
[1] = system: wild-type Yarrowia lipolytica; test: Chemo-stat fermentation with cell retention using NVR as carbon and energy source; conditions: for Flux: steady state, 2% (v/v) NVR, ~215 mL/h, biomass dilution rate ~0.025 h^-1
From the text: The experimental set-up provided for a NVR Feed, Nutrient Feed and Base Feed (12% (v/v) NH3 (aq.)) that was filter sterilized into the fermenter via peristaltic pumps. Furthermore, a peristaltic pump provided the necessary cross-flow retentate flow rate to the hollow fibre membrane, a peristaltic pump allowed withdrawal of permeate and a peristaltic pump allowed for a biomass bleed from the fermenter.
The chemo-stat's control philosophy entailed manual feed ratio control of the NVR Feed to Nutrient Feed rates, pH control via the Base Feed, temperature control via cooling water supply to the fermenter's jacket, fixed aeration & agitation rates via the respective feedback loops, fixed cross-flow rate via the retentate pump's variable speed drive, manual level control via the permeate pump and manual dilution rate control via the bleed pump.
The initial charge minimal media was prepared (6.7 g/L yeast base without amino acids+(NH4)2SO4, 15 g/L glucose, 75 mg/L citric acid (Mr.=210 g/mol), 5.8 g/L sodium citrate (Mr.=294.1 g/mol), 10.7 g/L K2HPO4 (Mr.=174 g/mol), 5.2 g/L KH2PO4 (M=136.1 g/mol), and 2 mL/L antifoam) and the Nutrient Feed was prepared (6.7 g/L yeast base without amino acids+(NH4)2SO4, 75 mg/L citric acid (Mr.=210 g/mol), 5.8 g/L sodium citrate (Mr.=294.1 g/mol), 10.7 g/L K2HPO4 (Mr.=174 g/mol), 5.2 g/L KH2PO4 (M=136.1 g/mol), and 2 mL/L antifoam). The control parameters for the fermenter were set up (A1 and A2: 1 vvm aeration, pH 7.0, DO calibration at pH 7.0 and 1 vvm to 100% saturation, 28° C., 750 rpm initial agitation until glucose depletion, 1250 rpm final agitation after glucose depletion, manual antifoam).
The fermenter was inoculated with a 10% (v/v) inoculum from a wild-type Yarrowia lipolytica shake flask that was grown overnight from a cryopreserved stock.

[2] = Hydrolysis of oligomers by cutinases (drop plates); type: biochemical; conditions: expressed in E. coli or Y. lipolytica; 12 hours at 28° C.
From the text: Cutinases from F. solani and A. oryzae were expressed in E. coli BL21 Star with His6 tags using the pET151/D-TOPO vector and the TOPO cloning system (Invitrogen) and purified on His-trap columns. The enzymes were also expressed as secreted extracellular proteins in a Y. lipolytica host strain deficient in the extracellular lipases LIP2, LIP7 & LIP8 (See, Example 7) and the supernatants concentrated 10 fold. Activity was confirmed using p-nitrophenyl butyrate as substrate, commercial lipase as a positive control and the concentrated soluble extract from E. coli transformed with the empty vector as negative control. […] (See, FIG. 26). This is further illustrated by the increase in monomeric acids, especially in the C-6 monomer components (hydroxycaproic acid, adipic acid, caproic acid) and valeric acid, released from the oligomers when cutinases (10 μl supernatant) were incubated with 4% NVR or 4% COP acid (v/v) (1 ml) overnight (See, FIGS. 27A and B).

Y. lipolytica strains = test: Growth of yeasts in the presence of lactones; type: cell-based, Yarrowia lipolytica; conditions: 0.1 to 1 g/L lactone; strains adapted to 3% NVR, especially Iss#137
From the text: FIG. 18 contains three line graphs showing the growth of selected yeasts in the presence of 0.1-1 g/L lactones (γ-butyrolactone, ε-caprolactone, and δ-valerolactone). Iss#125 is a S. cerevisiae control strain. Iss#134 is a Y. lipolytica strain isolated from plates after slow growth on 3% (v/v) NVR+YPD media. Iss#137 is a Y. lipolytica strain isolated from chemo-stat using synthetic NVR component feed.
A cell retention chemo-stat was required to avoid cell wash-out. […] HPLC analysis confirmed that NVR contains a high concentration (ca. 92 g/L) of valerolactone.

[3] = Lactone hydrolases incubated with NVR (LC/MS); type: biochemical; conditions: 4% v/v NVR, pH 7.0, 60 minutes
From the text: (§1) The lactone hydrolase from Acinobacter was expressed (See, FIG. 3) as a secreted protein in Y. lipolytica with all major extracellular lipases deleted (strain JMY1212, Δlip-2,7,8,11). The secreted hydrolase was concentrated 10 fold by centrifugal filtration of the supernatant (Amicon® Ultra Ultracel® 10K). This enzyme, as well as the lactone hydrolyzing enzymes from Brevibacterium epidermidis and Euglena gracilis were also expressed in E. coli BL21 Star™ (DE3) cells as His tagged proteins using the pET151 inducible expression vector, and the enzymes were purified using HisTrap™ FF columns (GE Healthcare), and concentrated as before by centrifugal filtration to 1 ml after elution from the columns. Activity assays were performed in phosphate buffer (50 mM, pH 7.0) and ZnCl2 (75 mM) containing the substrate (valerolactone, caprolactone, NVR, or COP acid) (4% v/v). Reactions were started by adding 50 μl concentrated enzyme and incubated with shaking for 60 minutes. Reactions were terminated by the addition of 500 μl acetonitrile and analyzed by LC/MS. The buffer control contained 5% glycerol in place of enzyme. To assess hydrolysis of oligomers in COP acid, 10 μl enzyme was added to agar plates (1.5% (w/v)) containing 4% (v/v) COP acid. All experiments were performed in triplicate. […]

[4] = Agar plate clearance zone assay on COP acid; type: biochemical; conditions: lipases; 4% (v/v) COP acid, pH = 7; 1 U/well, 24 hours
From the text: (§2) Screening methods for hydrolysis of oligomeric esters in NVR and COP acid with commercially available lipases and esterases were verified using commercially available caprolactonediol (CPL) polymers with a range of molecular weights. Two screening methods were used to identify candidate enzymes, including an agar plate assay where radial enzyme diffusion produces clearance zones if the oligomer in the agar is hydrolyzed, and a biotransformation assay in which the hydrolysis of the polymer to monomers was assayed by HPLC with UV detection or LC-MS to quantify the concentrations of monomers. […]
(§3) For plate assays, agar plates (1.5% agarose) containing 1-4% polycaprolactone (PCL), NVR or COP acid (v/v) were prepared with 50 mM citrate, Tris/HCl, or phosphate buffers to assay enzymes for hydrolytic activity at pH 3.5, 5, 7, or 8. […] Clearance zones were measured after 24 hours. […] FIG. 5 is a bar graph comparing the relative activity of esterases at different pHs as measured by the diameter of the clearance zone in the plate assay.

[5] = Plate assays, results summarised in words; type: biochemical; conditions: synthetic PCL diol, NVR and/or COP acid oligomers as named in the sentence; pH 5-8
Protocol: For plate assays, agar plates (1.5% agarose) containing 1-4% polycaprolactone (PCL), NVR or COP acid (v/v) were prepared with 50 mM citrate, Tris/HCl, or phosphate buffers to assay enzymes for hydrolytic activity at pH 3.5, 5, 7, or 8. The molecular weight of PCL is 530 g/mol. Wells with a ca. 3 mm diameter were made in the plates, and enzyme added (1 U/well). Clearance zones were measured after 24 hours. Tables 3 and 4 show the results of the agar plate assay with commercial esterases and lipases, respectively, for hydrolysis of oligomers in NVR, COP acid and caprolactone polymers. […] FIG. 5 is a bar graph comparing the relative activity of esterases at different pHs as measured by the diameter of the clearance zone in the plate assay.
See, Table 3, 4 and FIG. 4.

[6] = Agar plate clearance zone assay on NVR; type: biochemical; conditions: lipases; 1% (v/v) NVR, pH = 7; 1 U/well, 24 hours
From the text: as §2, §3

[7] = Lactone hydrolase activity assay (LC/MS); type: biochemical; conditions: 4% v/v substrate, pH 7.0, 60 minutes
From the text: as §1

O=C1CCCO1 [γ-butyrolactone]
Flux [1]: 0 % of valerate uptake

CCCC(=O)O [butyric acid]
steady state flux of catabolism relative to the catabolism of valeric acid ([1]; Table 6): 7%
Flux [1]: 7 % of valerate uptake

AoC: Aspergillus oryzae cutinase (EMBL D38311.1, UniProt P52956)
hydrolysis of oligomers in NVR and COP acid (clearance zones) [2]: able to hydrolyze oligomers in NVR and COP acid

O=C(O)CCCC(=O)O [glutaric acid]
Flux [1]: 12 % of valerate uptake

O=C1CCCCO1 [δ-valerolactone]
effect of lactone on growth of Y. lipolytica strains (Y. lipolytica strains): inhibitory

O=C(O)CCCCCO [6-hydroxycaproic acid]
Flux [1]: 18 % of valerate uptake

CCCCCC(=O)O [caproic acid]
steady state flux of catabolism relative to the catabolism of valeric acid ([1]; Table 6): 42%
Flux [1]: 42 % of valerate uptake

O=C(O)CCCCO [5-hydroxyvaleric acid]
Flux [1]: 32 % of valerate uptake

O=C(O)CCCCC(=O)O [adipic acid]
steady state flux of catabolism relative to the catabolism of valeric acid ([1]; not told): 18%

B1: ChnC from Brevibacterium: Lactonohydrolase, GenBank AAK73167.2, SEQ ID NO:2 (protein, listed as Brevibacterium epidermidis)
chain: MPTSPPTVSATPMTWSSRRTGRPTSASSASTSWAGPITSSPMSSRQHRRHLGVVASGLSFPNGMVITPDGKTLIVNELFGNKITAFDIGADGKLANKRDFANFGEIGDEPDVAKRIEAATIVPDGLALDAEGAVWIANTVNQNATRIAEGGQILDTVDTAPEGIFAVALGGDDGKTLFLCAAPDWDEGARSKAREGRMLATTVAVPHAGRP
hydrolysis of valerolactone in NVR [3]: hydrolyzed valerolactone

B2: L7: Commercial lipase from Rhizomucor miehei (protein, UniProt P19515 95-363, looked up)
Lipase: SIDGGIRAATSQEINELTYYTTLSANSYCRTVIPGATWDCIHCDATEDLKIIKTWSTLIYDTNAMVARGDSEKTIYIVFRGSSSIRNWIADLTFVPVSYPPVSGTKVHKGFLDSYGEVQNELVATVLDQFKQYPSYKVAVTGHSLGGATALLCALDLYQREEGLSSSNLFLYTQGQPRVGDPAFANYVVSTGIPYRRTVNERDIVPHLPPAAFGFLHAGEEYWITDNSPETVQVCTSDLETSDCSNSIVPFTSVLDHLSYFGINTGLCT
Substrate Clearance Zone Diameter [4]: 2.2
hydrolytic activity in plate assays (in words) [5]: large clearance zones
Substrate Clearance Zone Diameter [6]: 1.7

B3: ChnC from Acinobacter: Lactone hydrolase, GenBank AAG10029.1, SEQ ID NO:1 (protein)
chain: MNSTQSNTQFLFDLYANWSRRMQENPNMTIEDFRSMFDEWHQPTLEPEEVSYKFDVVAGVEGLWIYPKDADLSKVIIYTHGGGFAVGSSASHRKLVGHLAKYLGVSAFVVDYRRSPEHVFPAQIQDVTAVYKELLQRGFTAKNMLTAGDSAGGNLAISTVLNLRNEGIELPGAVIAFSPWLDMEHKGETLISNDATDALITVDLLKGMSQMFLGEHGDPANPLANPLKANYQVFPRLYINAGSVESLVDNATRLADIAKKEGVDVTLSVVDNMQHVFPFLAGRASEADQELAKIAQWFKA
modifications: Acinetobacter sp. SE19
lactone hydrolyzing activity [7]: highest activity
hydrolysis of valerolactone in NVR [3]: hydrolyzed valerolactone
